Tests used:
Human Pan T cells = test: IL-2 Release Detection Assay; type: cell-based; conditions: T-cell; for EC50: IL-2 in supernatant by ELISA, anti-CD3 pre-coated plate, 24 hours; for maximal fold induction: Top activation/DMSO control; for activity at 0.1 µM: curve value at 100 nM/DMSO control*100%, read-out: Activation % at 100 nM
Description: Isolate Human Pan T cells from PBMC according to T cell isolation kit (Stemcell, 17951). The suspend T cell in RPMI 1640 medium containing 10% FBS, 1% PS and 55 µM β-Mer at a density of 3*10^6 cells/well/3 ml are seeded into 6 well plate, recovered overnight at 37° C.&[…]. Harvest overnight recovered T cells are suspended in fresh RPMI1640 medium containing 10% FBS, 1% PS and 55 μM f-Mer, seeded 1*10^5/well/200 μl cells into the anti-CD3 pre-coated 96 well plate. Add dilutions of compounds into the cells and incubate at 37° C.&5% CO2 for 24 hours. IL-2 in cell supernatant was detected by ELISA Kit (R&D, DY202). Fit the compound EC50 in non-linear regression equation: Y=Bottom+(Top−Bottom)/(1+10^((Log EC50−X)*HillSlope)), X=compound concentration, Y=Activation %. Top and Bottom: Plateaus in same units as Y. Log EC50: same log units as X. Activation fold: Top activation/DMSO control. Activation % at 100 nM: Activation of non-linear regression equation curve at the concentration of 100 nM/DMSO control*100%.

[1] = Mouse PK profile after oral administration; type: in vivo, Male CD-1 mice; conditions: for AUC(0-inf) / AUC(0-t) / Cmax / half-life: male, CD-1, plasma, mouse, oral, 5 mg/kg; for T1/2, Cmax and AUC compared with compound: mouse PK evaluation, comparison in words
Description: Species and strain: Male CD-1 mice of SPF. Source: Sino-British SIPPR/BK Lab Animal Ltd, Shanghai. 3 mice were orally gavage administrated with given compounds (Formulation: 5% DMSO+10% Solutol+85% Saline). The blood samples were taken via cephalic vein at timepoints 0.25 h, 0.5 h, 1 h, 2 h, 4 h, 6 h, 8 h and 24 h after oral gavage administration, 30 μL/time point. Blood samples were placed in tubes containing K2-EDTA and stored on ice until centrifuged. The blood samples were centrifuged at 6800 g for 6 minutes at 2-8° C. within 1 h after collected and stored frozen at approximately −80° C. An aliquot of 10 μL plasma samples were protein precipitated with 200 μL MeOH in which contains 10 ng/mL Verapamil (IS). The mixture was vortexed for 1 min and centrifuged at 18000 g for 7 min. Transfer 180 μL supernatant to 96 well plates. An aliquot of 6 μL supernatant was injected for LC-MS/MS analysis by LC-MS/MS-04 (API4000) instrument. The analytical results were confirmed using quality control samples for intra-assay variation. The accuracy of >66.7% of the quality control samples should be between 80-120% of the known value(s). Standard set of parameters including Area Under the Curve (AUC(0-t) and AUC(0-∞)), elimination half-live (T½), maximum plasma concentration (Cmax), will be calculated using noncompartmental analysis modules in FDA certified pharmacokinetic program Phoenix WinNonlin 7.0 (Pharsight, USA).

[2] = Rat PK profile after oral administration; type: in vivo, Male SD rats; conditions: for AUC(0-inf) / AUC(0-t) / Cmax / half-life: male, SD, plasma, rat, oral, 5 mg/kg; for T1/2, Cmax and AUC compared with compound: rat PK evaluation, comparison in words
Description: Species and strain: Male SD rats of SPF. Source: Sino-British SIPPR/BK Lab Animal Ltd, Shanghai. 3 rats were orally gavage administrated with given compounds (Formulation: 5% DMSO+10% Solutol+85% Saline). The blood samples were taken via submandibular vein or other suitable vein at timepoints 0.25 h, 0.5 h, 1 h, 2 h, 4 h, 6 h, 8 h and 24 h after oral gavage administration, 0.15 mL/time point. Blood samples were placed in tubes containing K2-EDTA and stored on ice until centrifuged. The blood samples were centrifuged at 6800 g for 6 minutes at 2-8° C. within 1 h after collected and stored frozen at approximately −80° C. An aliquot of 30 μL plasma samples were protein precipitated with 300 μL MeOH in which contains 100 ng/mL Verapamil (IS). The mixture was vortexed for 1 min and centrifuged at 18000 g for 7 min. Transfer 300 μL supernatant to 96 well plates. An aliquot of 8 μL supernatant was injected for LC-MS/MS analysis by LC-MS/MS-12 (TQ5500) instrument. The analytical results were confirmed using quality control samples for intra-assay variation. The accuracy of >66.7% of the quality control samples should be between 80-120% of the known value(s). Standard set of parameters including Area Under the Curve (AUC(0-t) and AUC(0-∞)), elimination half-live (T1/2), maximum plasma concentration (Cmax), will be calculated using noncompartmental analysis modules in FDA certified pharmacokinetic program Phoenix WinNonlin 7.0 (Pharsight, USA).

DGKA = target: T1, DGKA (Homo sapiens, UniProt P23743); test: DGKA Inhibition ADP-Glo Assay; type: biochemical; conditions: 40 μM ATP
T1 construct: purchased SignalChem D21-10BG
Description: The DGKA inhibition reactions were performed using ADP-Glo assay. The reactions were carried out in 50 mM HEPES, 100 mM NaCl, 10 mM MgCl2, 1 mM CaCl2, 0.005% TritonX-100 and 1 mM DTT as working solution (pH=7.5). 30 nL DMSO solution of each test compound (Top concentration […] with 10 point, 4-fold dilution series for each compound) were transferred to 384 well plate by Echo and 5 μL DGKA (SignalChem, D21-10BG) enzyme working solution at 2× final reaction concentration was added to each well. After incubated at 25° C. for 15 minutes, 5 μL substrate working solution contain 40 μM ATP (Promega, V915B) and 200 µM DLG (SignalChem, D430-59) were added to initiate reaction. After enzymatic reaction at 25° C. for 60 min, ADP Glo assay reagents (Promega, V9102) were added and luminescence was recorded using an EnVision following the instruction of manual. […] The IC50 value was calculated via a regression analysis of the inhibition rate.

T1 sequence (P23743 whole entry): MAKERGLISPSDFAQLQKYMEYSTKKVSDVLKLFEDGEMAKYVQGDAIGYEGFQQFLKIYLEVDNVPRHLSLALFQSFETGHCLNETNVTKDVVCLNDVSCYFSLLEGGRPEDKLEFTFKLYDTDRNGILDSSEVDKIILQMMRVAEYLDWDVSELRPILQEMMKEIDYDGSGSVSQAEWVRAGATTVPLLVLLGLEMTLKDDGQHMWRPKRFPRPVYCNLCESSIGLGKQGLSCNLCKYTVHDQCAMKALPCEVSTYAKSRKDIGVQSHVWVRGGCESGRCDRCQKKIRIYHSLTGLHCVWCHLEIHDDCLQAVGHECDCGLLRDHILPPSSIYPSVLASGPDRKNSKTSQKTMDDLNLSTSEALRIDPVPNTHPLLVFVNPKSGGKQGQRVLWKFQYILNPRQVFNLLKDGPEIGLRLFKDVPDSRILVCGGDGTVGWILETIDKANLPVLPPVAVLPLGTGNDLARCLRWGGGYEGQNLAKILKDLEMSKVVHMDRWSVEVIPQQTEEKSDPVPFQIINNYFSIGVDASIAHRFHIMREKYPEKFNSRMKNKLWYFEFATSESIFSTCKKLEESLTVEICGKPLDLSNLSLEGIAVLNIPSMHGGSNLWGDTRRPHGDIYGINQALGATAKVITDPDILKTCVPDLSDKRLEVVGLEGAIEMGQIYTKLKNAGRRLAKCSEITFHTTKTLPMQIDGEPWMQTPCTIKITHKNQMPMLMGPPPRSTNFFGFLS

Row | Structure (SMILES) | EC50 (Human Pan T cells) [nM] | AUC(0-inf) [1] [ng·h/mL] | AUC(0-t) [1] [ng·h/mL] | Cmax [1] [ng/mL] | half-life [1] [h] | T1/2, Cmax and AUC compared with compound [1] | AUC(0-inf) [2] [ng·h/mL] | AUC(0-t) [2] [ng·h/mL] | Cmax [2] [ng/mL] | half-life [2] [h] | T1/2, Cmax and AUC compared with compound [2] | IC50 (DGKA) [nM] | maximal fold induction (Human Pan T cells) | activity at 0.1 µM (Human Pan T cells) [%]
1 | Cn1c(=O)nc(N2CCOCc3c(C#CC4(C(F)(F)F)CC4)cccc32)c2cc(Cl)c(OCCO)cc21 [Example 13, 6-chloro-7-(2-hydroxyethoxy)-1-methyl-4-(6-((1-(trifluoromethyl)cyclopropyl)ethynyl)-2,3-dihydrobenzo[e][1,4]oxazepin-1(5H)-yl)quinazolin-2(1H)-one] | 131 | 28400 | 26200 | 2400 | 6.13 | longer T1/2, much higher Cmax and AUC | – | 7520 | 455 | – | longer T1/2, much higher Cmax and AUC | < 1 | 22.5 | –
2 | Cn1c(=O)nc(N2CCOCc3c(C#CC4(C(F)(F)F)CC4)cccc32)c2cc(C#N)c(OC3CCOC3)cc21 (centres unmarked) [Example 12, 1-methyl-2-oxo-7-((tetrahydrofuran-3-yl)oxy)-4-(6-((1-(trifluoromethyl)cyclopropyl)ethynyl)-2,3-dihydrobenzo[e][1,4]oxazepin-1(5H)-yl)-1,2-dihydroquinazoline-6-carbonitrile] | 1080 | 7870 | 7740 | 1690 | 1.03 | – | – | – | – | – | – | < 1 | 14.2 | 311
3 | Cn1c(=O)nc(N2CCOCc3c(C#CC4(C(F)(F)F)CC4)cccc32)c2cc(Cl)ccc21 [Example 5, 6-chloro-1-methyl-4-(6-((1-(trifluoromethyl)cyclopropyl)ethynyl)-2,3-dihydrobenzo[e][1,4]oxazepin-1(5H)-yl)quinazolin-2(1H)-one] | 444 | 7110 | 6660 | 985 | 2.03 | – | 3760 | 3470 | 292 | 6.32 | – | < 1 | 7.7 | 395
4 | Cn1c(=O)nc(N2CCOCc3c(C#CC4(C(F)(F)F)CC4)cccc32)c2cc(Cl)c(N3CCOCC3)cc21 [Example 19, 6-chloro-1-methyl-7-morpholino-4-(6-((1-(trifluoromethyl)cyclopropyl)ethynyl)-2,3-dihydrobenzo[e][1,4]oxazepin-1(5H)-yl)quinazolin-2(1H)-one] | 2190 | – | – | – | – | – | – | – | – | – | – | 1 to 10 | 25.2 | 234

Now from value to compound, other results behind:

Row | EC50 (Human Pan T cells) [nM] | AUC(0-inf) [1] [ng·h/mL] | AUC(0-t) [1] [ng·h/mL] | Cmax [1] [ng/mL] | half-life [1] [h] | T1/2, Cmax and AUC compared with compound [1] | AUC(0-inf) [2] [ng·h/mL] | AUC(0-t) [2] [ng·h/mL] | Cmax [2] [ng/mL] | half-life [2] [h] | T1/2, Cmax and AUC compared with compound [2] | IC50 (DGKA) [nM] | Structure (SMILES) | maximal fold induction (Human Pan T cells) | activity at 0.1 µM (Human Pan T cells) [%]
5 | 608 | 15500 | 15300 | 2230 | 3.28 | longer T1/2, much higher Cmax and AUC | 12000 | 10200 | 724 | 8.09 | longer T1/2, much higher Cmax and AUC | < 1 | Cn1c(=O)nc(N2CCOCc3c(C#CC4CC4)cccc32)c2cc(Cl)c(OCCO)cc21 [Example 41, 6-chloro-4-(6-(cyclopropylethynyl)-2,3-dihydrobenzo[e][1,4]oxazepin-1(5H)-yl)-7-(2-hydroxyethoxy)-1-methylquinazolin-2(1H)-one] | 26.3 | 510
6 | 714 | – | – | – | – | – | – | – | – | – | – | < 1 | Cn1c(=O)nc(N2CCOCc3c(C#CC4(C(F)(F)F)CC4)cccc32)c2cc(C#N)c(OCCN)cc21 [Example 33, 7-(2-aminoethoxy)-1-methyl-2-oxo-4-(6-((1-(trifluoromethyl)cyclopropyl)ethynyl)-2,3-dihydrobenzo[e][1,4]oxazepin-1(5H)-yl)-1,2-dihydroquinazoline-6-carbonitrile] | 38.4 | 631
